US20210220356A1, “DIHYDROPYRIMIDINE DERIVATIVES AND USES THEREOF IN THE TREATMENT OF HBV INFECTION OR OF HBV-INDUCED DISEASES” (Janssen Sciences Ireland Unlimited Company, priority 2018, published 2021)
pEC50: −log10 of the molar value. Structures can show the parent of a compound that is named as a salt. Where two headings read alike, the source gives them in different places.

How the values were obtained:
HBV = HBV inhibitory activity in HepG2.2.15 cells (HBV DNA in culture medium by q-PCR); type: cell-based; conditions: Hepatitis B virus, HepG2.2.15, 144 h
In short: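 HepG2.2.15 cells (40,000/well, 2% FBS) treated 6 days with compounds, medium refreshed once; 8 points, 3-fold dilution, top 10 uM. Secreted HBV DNA in medium extracted and quantified by q-PCR; EC50 calculated from dose-response.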

[1] = Cytotoxicity determination in HepG2.2.15 cells (CCK-8); type: cell-based; conditions: human, HepG2.2.15 cells, 5,000 cells/well, 6 days of compound treatment, CCK-8 absorbance 450 nm, highest concentration 100 uM
In short: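 HepG2.2.15 cells, 5,000/well in 2% FBS medium, treated 6 days with compound (medium refreshed midway), 8-point 3-fold dilutions from 100 uM top. Viability read by CCK-8, 2.5 h at 37° C, absorbance 450 nm with 630 nm reference; CC50 from curve fitting.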

[2] = HepG2.2.15 cells, 40,000 cells/well, 6 days of compound treatment, HBV DNA in culture medium by q-PCR, highest concentration 10 uM, read-out: EC50

| Compound | pEC50 (HBV) | CC50 at 6 days [1] [µM] | pEC50 (HBV; [2]) | CC50 at 6 days ([1]; HepG2.2.15 cells) [µM] |
| --- | --- | --- | --- | --- |
| COC(=O)C1=C(C2CCc3nc(C(=O)O)oc3C2)NC(c2nccs2)=NC1c1ccc(F)c(F)c1Cl (stereo not shown) [Compound 78c, lithium 6-(6-(2-chloro-3,4-difluorophenyl)-5-(methoxycarbonyl)-2-(thiazol-2-yl)-3,6-dihydropyrimidin-4-yl)-4,5,6,7-tetrahydrobenzo[d]oxazole-2-carboxylate] | 7.24 | 52 |  |  |
| COC(=O)C1=C(C2CCc3nn(CCC(=O)O)cc3C2)NC(c2nccs2)=NC1c1ccc(F)cc1C (stereo not shown) [Compound 80c, 3-(5-(6-(4-fluoro-2-methylphenyl)-5-(methoxycarbonyl)-2-(thiazol-2-yl)-3,6-dihydropyrimidin-4-yl)-4,5,6,7-tetrahydro-2H-indazol-2-yl)propanoic acid] |  |  | 7.14 | 33.2 |
| COC(=O)C1=C(C2CCc3nn(CC(C)(C)C(=O)O)cc3C2)NC(c2nccs2)=NC1c1ccc(F)c(F)c1Cl (stereo not shown) [Compound 84d, 3-(5-(6-(2-chloro-3,4-difluorophenyl)-5-(methoxycarbonyl)-2-(thiazol-2-yl)-3,6-dihydropyrimidin-4-yl)-4,5,6,7-tetrahydro-2H-indazol-2-yl)-2,2-dimethylpropanoic acid] |  |  | 7.73 | 16.4 |
| CCOC(=O)C1=C(C2CCc3nn(CCC(C)(C)C(=O)O)cc3C2)NC(c2nccs2)=NC1c1ccc(F)c(F)c1Cl (stereo not shown) [Compound 88d, 4-(5-(6-(2-Chloro-3,4-difluorophenyl)-5-(ethoxycarbonyl)-2-(thiazol-2-yl)-3,6-dihydropyrimidin-4-yl)-4,5,6,7-tetrahydro-2H-indazol-2-yl)-2,2-dimethylbutanoic acid] |  |  | 7.68 | 9.8 |
| COC(=O)C1=C(C2CCc3nn(CCC(C)(C)C(=O)O)cc3C2)NC(c2nccs2)=NC1c1ccc(F)c(F)c1Cl (stereo not shown) [Compound 90c, 4-(5-(6-(2-Chloro-3,4-difluorophenyl)-5-(methoxycarbonyl)-2-(thiazol-2-yl)-3,6-dihydropyrimidin-4-yl)-4,5,6,7-tetrahydro-2H-indazol-2-yl)-2,2-dimethylbutanoic acid] |  |  | 7.60 | 13.3 |
| CCOC(=O)C1=C(C2CCc3nn(CC(C)(C)C(=O)O)cc3C2)NC(c2nccs2)=NC1c1ccc(F)c(F)c1C (stereo not shown) [Compound 92c, 3-(5-(6-(3,4-difluoro-2-methylphenyl)-5-(ethoxycarbonyl)-2-(thiazol-2-yl)-3,6-dihydropyrimidin-4-yl)-4,5,6,7-tetrahydro-2H-indazol-2-yl)-2,2-dimethylpropanoic acid] |  |  | 8.10 | 9.3 |
| CCOC(=O)C1=C(C2CCc3nn(CC(C)(C)C(=O)O)cc3C2)NC(c2ncc(F)cc2F)=NC1c1ccc(F)c(F)c1Cl (stereo not shown) [Compound 94c, 3-(5-(6-(2-Chloro-3,4-difluorophenyl)-2-(3,5-difluoropyridin-2-yl)-5-(ethoxycarbonyl)-3,6-dihydropyrimidin-4-yl)-4,5,6,7-tetrahydro-2H-indazol-2-yl)-2,2-dimethylpropanoic acid hydrochloride] | 8.15 | 16.5 |  |  |
| COC(=O)C1=C(C2CCc3nn([C@H]4C[C@@H](C(=O)O)C4)cc3C2)NC(c2nccs2)=NC1c1ccc(F)c(F)c1Cl (stereo partly drawn) [Compound 96d, (cis)-3-(5-(6-(2-Chloro-3,4-difluorophenyl)-5-(methoxycarbonyl)-2-(thiazol-2-yl)-3,6-dihydropyrimidin-4-yl)-4,5,6,7-tetrahydro-2H-indazol-2-yl)cyclobutanecarboxylic acid] |  |  | 7.61 | 19.3 |
